Measurements published in patent publication US20250171407A1, “ULTRAVIOLET ABSORBER” (BASF SE, priority 2022, published 2025).

Assay: Solubility test: visual assessment of defects in the dried paint of the stabilized coating formulation
Type: physicochemical
Description: Each coating formulation A was stabilized with 1.0 or 3.0 active % based on resin solids of Tinuvin® 1130 (UV absorber, BASF SE), Tinuvin® 9945-DW (N) or inventive examples samples.
Each coating formulation further contained 1,0 active % based on resin solids of Tinuvin® 123DW (N) (HALS, BASF SE).
The clear coat formulations were subsequently applied by brush onto a wood substrate (thickness: two layers à 100 g/m^2 resulting after drying at room temperature in a final dry film thickness of ˜40 μm). The clear coat formulations were subsequently applied by draw-down onto a glass plate (thickness: one layer b 200 g/m^2 resulting after drying at room temperature in a final dry film thickness of ˜40 μm).
The solubility of above-described coating formulation containing one of the compounds obtained in examples 3, 11 and 27 in the amount given above was tested. The solubility was visually assessed qualitatively by presence of defects in the dried paint.

For Tinuvin® 1130 [Example 27], the Presence of defects was “no”.
